The results in this text go back to PubChem BioAssay AID1259407 (Chemical Carcinogenesis Research Information System (CCRIS), 2018).

The subject of this data set is CCRIS mutagenicity, Ames/micronucleus/aberration tests. Description: CCRIS mutagenicity studies.
The mark [1] stands for this setting: Test System: AMES SALMONELLA TYPHIMURIUM, Strain/Indicator: TA1535, Metabolic Activation: NONE, Method: PREINCUBATION

Calls of active or inactive are those of the source. The rule behind the calls is not given here.

For the molecule `COc1c2ccoc2nc2c(OC)cccc12`, the mutagenic call was “active; positive” (Test System: AMES SALMONELLA TYPHIMURIUM, Strain/Indicator: TA98, Metabolic Activation: RAT, LIVER, MICROSOMES, PHENOBARBITAL, Method: STANDARD PLATE); “active; positive” (Test System: AMES SALMONELLA TYPHIMURIUM, Strain/Indicator: TA98, Metabolic Activation: RAT, LIVER, S-9, PHENOBARBITAL, Method: STANDARD PLATE); “active; positive” (Test System: AMES SALMONELLA TYPHIMURIUM, Strain/Indicator: TA100, Metabolic Activation: RAT, LIVER, MICROSOMES, PHENOBARBITAL, Method: STANDARD PLATE); “active; positive” (Test System: AMES SALMONELLA TYPHIMURIUM, Strain/Indicator: TA100, Metabolic Activation: RAT, LIVER, S-9, PHENOBARBITAL, Method: STANDARD PLATE); “inactive; negative” (Test System: AMES SALMONELLA TYPHIMURIUM, Strain/Indicator: TA1535, Metabolic Activation: RAT, LIVER, MICROSOMES, PHENOBARBITAL, Method: STANDARD PLATE); “active; positive” (Test System: AMES SALMONELLA TYPHIMURIUM, Strain/Indicator: TA1538, Metabolic Activation: RAT, LIVER, MICROSOMES, PHENOBARBITAL, Method: STANDARD PLATE).

With `Cc1ccccc1N=O`, the mutagenic call is, setting by setting: (Test System: AMES SALMONELLA TYPHIMURIUM, Strain/Indicator: TA98, Metabolic Activation: NONE, Method: STANDARD PLATE) “inactive; negative”; (Test System: AMES SALMONELLA TYPHIMURIUM, Strain/Indicator: TA98, Metabolic Activation: RAT, LIVER, S-9, AROCLOR 1254, Method: PREINCUBATION) “inactive; negative”; (Test System: AMES SALMONELLA TYPHIMURIUM, Strain/Indicator: TA98, Metabolic Activation: RAT, LIVER, S-9, AROCLOR 1254, Method: STANDARD PLATE) “inactive; negative”; (Test System: AMES SALMONELLA TYPHIMURIUM, Strain/Indicator: TA100, Metabolic Activation: NONE, Method: STANDARD PLATE) “inactive; negative”; (Test System: AMES SALMONELLA TYPHIMURIUM, Strain/Indicator: TA100, Metabolic Activation: RAT, LIVER, S-9, AROCLOR 1254, Method: STANDARD PLATE) “active; positive”.

For the molecule `O=C(Cl)c1ccccc1[N+](=O)[O-]`, the mutagenic call (Test System: AMES SALMONELLA TYPHIMURIUM, Strain/Indicator: TA97, Metabolic Activation: HAMSTER, LIVER, S-9, AROCLOR 1254 (10%), Method: PREINCUBATION) was “active; positive”; the mutagenic call (Test System: AMES SALMONELLA TYPHIMURIUM, Strain/Indicator: TA97, Metabolic Activation: NONE, Method: PREINCUBATION) is “active; positive”; the mutagenic call (Test System: AMES SALMONELLA TYPHIMURIUM, Strain/Indicator: TA97, Metabolic Activation: RAT, LIVER, S-9, AROCLOR 1254 (10%), Method: PREINCUBATION) was “active; positive”; the mutagenic call (Test System: AMES SALMONELLA TYPHIMURIUM, Strain/Indicator: TA98, Metabolic Activation: HAMSTER, LIVER, S-9, AROCLOR 1254 (10%), Method: PREINCUBATION) is “active; positive”; the mutagenic call (Test System: AMES SALMONELLA TYPHIMURIUM, Strain/Indicator: TA98, Metabolic Activation: RAT, LIVER, S-9, AROCLOR 1254 (10%), Method: PREINCUBATION) is “active; positive”; the mutagenic call (Test System: AMES SALMONELLA TYPHIMURIUM, Strain/Indicator: TA98, Metabolic Activation: RAT, LIVER, S-9, KANECHLOR 500, Method: PREINCUBATION) is “active; positive”. The mutagenic call runs as follows: (Test System: AMES SALMONELLA TYPHIMURIUM, Strain/Indicator: TA100, Metabolic Activation: HAMSTER, LIVER, S-9, AROCLOR 1254 (10%), Method: PREINCUBATION) “active; positive”; (Test System: AMES SALMONELLA TYPHIMURIUM, Strain/Indicator: TA100, Metabolic Activation: NONE, Method: PREINCUBATION) “active; positive”; (Test System: AMES SALMONELLA TYPHIMURIUM, Strain/Indicator: TA100, Metabolic Activation: RAT, LIVER, S-9, AROCLOR 1254 (10%), Method: PREINCUBATION) “active; positive”; (Test System: AMES SALMONELLA TYPHIMURIUM, Strain/Indicator: TA100, Metabolic Activation: RAT, LIVER, S-9, KANECHLOR 500, Method: PREINCUBATION) “active; positive”; (Test System: AMES SALMONELLA TYPHIMURIUM, Strain/Indicator: TA1535, Metabolic Activation: HAMSTER, LIVER, S-9, AROCLOR 1254 (10%), Method: PREINCUBATION) “inactive; negative”; under setting [1], “inactive; negative”. Moreover, the mutagenic call (Test System: AMES SALMONELLA TYPHIMURIUM, Strain/Indicator: TA1535, Metabolic Activation: RAT, LIVER, S-9, AROCLOR 1254 (10%), Method: PREINCUBATION) is “inactive; negative”.

As to `CN(N)C=O`, the mutagenic call is “inactive; negative” under setting [1]; “inactive; negative” (Test System: AMES SALMONELLA TYPHIMURIUM, Strain/Indicator: TA1535, Metabolic Activation: RAT, LIVER, S-9, AROCLOR 1254, Method: PREINCUBATION); “inactive; negative” (Test System: AMES SALMONELLA TYPHIMURIUM, Strain/Indicator: TA1537, Metabolic Activation: NONE, Method: PREINCUBATION); “inactive; negative” (Test System: AMES SALMONELLA TYPHIMURIUM, Strain/Indicator: TA1537, Metabolic Activation: RAT, LIVER, S-9, AROCLOR 1254, Method: PREINCUBATION).

For `CCOC(=O)NCCOc1ccc(Oc2ccccc2)cc1`, the mutagenic call (Test System: Ames Salmonella typhimurium, Strain/Indicator: TA97, Metabolic Activation: None, Method: Plate incorporation) is “inactive; negative”; the mutagenic call (Test System: Ames Salmonella typhimurium, Strain/Indicator: TA97, Metabolic Activation: None, Method: Preincubation) was “inactive; negative”; the mutagenic call (Test System: Ames Salmonella typhimurium, Strain/Indicator: TA97, Metabolic Activation: Rat, Liver, S-9, Phenobarbital and beta-naphthoflavone, Method: Plate incorporation) is “inactive; negative”; the mutagenic call (Test System: Ames Salmonella typhimurium, Strain/Indicator: TA97, Metabolic Activation: Rat, Liver, S-9, Phenobarbital and beta-naphthoflavone, Method: Preincubation) is “inactive; negative”; the mutagenic call (Test System: Ames Salmonella typhimurium, Strain/Indicator: TA98, Metabolic Activation: None, Method: Plate incorporation) was “inactive; negative”; the mutagenic call (Test System: Ames Salmonella typhimurium, Strain/Indicator: TA98, Metabolic Activation: None, Method: Preincubation) was “inactive; negative”. Also, the mutagenic call (Test System: Ames Salmonella typhimurium, Strain/Indicator: TA98, Metabolic Activation: Rat, Liver, S-9, Phenobarbital and beta-naphthoflavone, Method: Plate incorporation) is “inactive; negative”; the mutagenic call (Test System: Ames Salmonella typhimurium, Strain/Indicator: TA98, Metabolic Activation: Rat, Liver, S-9, Phenobarbital and beta-naphthoflavone, Method: Preincubation) was “inactive; negative”; the mutagenic call (Test System: Ames Salmonella typhimurium, Strain/Indicator: TA100, Metabolic Activation: None, Method: Plate incorporation) is “inactive; negative”; the mutagenic call (Test System: Ames Salmonella typhimurium, Strain/Indicator: TA100, Metabolic Activation: None, Method: Preincubation) was “inactive; negative”; the mutagenic call (Test System: Ames Salmonella typhimurium, Strain/Indicator: TA100, Metabolic Activation: Rat, Liver, S-9, Phenobarbital and beta-naphthoflavone, Method: Plate incorporation) was “inactive; negative”; the mutagenic call (Test System: Ames Salmonella typhimurium, Strain/Indicator: TA100, Metabolic Activation: Rat, Liver, S-9, Phenobarbital and beta-naphthoflavone, Method: Preincubation) is “inactive; negative”. Also, the mutagenic call runs as follows: (Test System: Ames Salmonella typhimurium, Strain/Indicator: TA102, Metabolic Activation: None, Method: Plate incorporation) “inactive; negative”; (Test System: Ames Salmonella typhimurium, Strain/Indicator: TA102, Metabolic Activation: None, Method: Preincubation) “inactive; negative”; (Test System: Ames Salmonella typhimurium, Strain/Indicator: TA102, Metabolic Activation: Rat, Liver, S-9, Phenobarbital and beta-naphthoflavone, Method: Plate incorporation) “inactive; negative”; (Test System: Ames Salmonella typhimurium, Strain/Indicator: TA102, Metabolic Activation: Rat, Liver, S-9, Phenobarbital and beta-naphthoflavone, Method: Preincubation) “inactive; negative”; (Test System: Ames Salmonella typhimurium, Strain/Indicator: TA1535, Metabolic Activation: None, Method: Plate incorporation) “inactive; negative”; (Test System: Ames Salmonella typhimurium, Strain/Indicator: TA1535, Metabolic Activation: None, Method: Preincubation) “inactive; negative”. Moreover, the mutagenic call (Test System: Ames Salmonella typhimurium, Strain/Indicator: TA1535, Metabolic Activation: Rat, Liver, S-9, Phenobarbital and beta-naphthoflavone, Method: Plate incorporation) was “inactive; negative”; the mutagenic call (Test System: Ames Salmonella typhimurium, Strain/Indicator: TA1535, Metabolic Activation: Rat, Liver, S-9, Phenobarbital and beta-naphthoflavone, Method: Preincubation) was “inactive; negative”; the mutagenic call (Test System: Ames Salmonella typhimurium, Strain/Indicator: TA1537, Metabolic Activation: None, Method: Plate incorporation) was “inactive; negative”; the mutagenic call (Test System: Ames Salmonella typhimurium, Strain/Indicator: TA1537, Metabolic Activation: None, Method: Preincubation) is “inactive; negative”; the mutagenic call (Test System: Ames Salmonella typhimurium, Strain/Indicator: TA1537, Metabolic Activation: Rat, Liver, S-9, Phenobarbital and beta-naphthoflavone, Method: Plate incorporation) is “inactive; negative”; the mutagenic call (Test System: Ames Salmonella typhimurium, Strain/Indicator: TA1537, Metabolic Activation: Rat, Liver, S-9, Phenobarbital and beta-naphthoflavone, Method: Preincubation) is “inactive; negative”. The mutagenic call is “inactive; negative” (Test System: Ames Salmonella typhimurium, Strain/Indicator: TA1538, Metabolic Activation: None, Method: Plate incorporation); “inactive; negative” (Test System: Ames Salmonella typhimurium, Strain/Indicator: TA1538, Metabolic Activation: None, Method: Preincubation); “inactive; negative” (Test System: Ames Salmonella typhimurium, Strain/Indicator: TA1538, Metabolic Activation: Rat, Liver, S-9, Phenobarbital and beta-naphthoflavone, Method: Plate incorporation); “inactive; negative” (Test System: Ames Salmonella typhimurium, Strain/Indicator: TA1538, Metabolic Activation: Rat, Liver, S-9, Phenobarbital and beta-naphthoflavone, Method: Preincubation).
